Data from patent publication US20030229132A1, “Small molecule modulators of apoptosis” (priority 2002, published 2003).

Molecular target: T1, Apaf-1 (Homo sapiens, UniProt O14727)
T1 construct: resulting in full-length Apaf-XL with a C-terminal six histidine tag; six histidine tag (His6) (C); made in house; host or cells: insect cells (Hi-5), baculovirus vector pFastbacHT / pFastbacH
T1 sequence (O14727 1-1248): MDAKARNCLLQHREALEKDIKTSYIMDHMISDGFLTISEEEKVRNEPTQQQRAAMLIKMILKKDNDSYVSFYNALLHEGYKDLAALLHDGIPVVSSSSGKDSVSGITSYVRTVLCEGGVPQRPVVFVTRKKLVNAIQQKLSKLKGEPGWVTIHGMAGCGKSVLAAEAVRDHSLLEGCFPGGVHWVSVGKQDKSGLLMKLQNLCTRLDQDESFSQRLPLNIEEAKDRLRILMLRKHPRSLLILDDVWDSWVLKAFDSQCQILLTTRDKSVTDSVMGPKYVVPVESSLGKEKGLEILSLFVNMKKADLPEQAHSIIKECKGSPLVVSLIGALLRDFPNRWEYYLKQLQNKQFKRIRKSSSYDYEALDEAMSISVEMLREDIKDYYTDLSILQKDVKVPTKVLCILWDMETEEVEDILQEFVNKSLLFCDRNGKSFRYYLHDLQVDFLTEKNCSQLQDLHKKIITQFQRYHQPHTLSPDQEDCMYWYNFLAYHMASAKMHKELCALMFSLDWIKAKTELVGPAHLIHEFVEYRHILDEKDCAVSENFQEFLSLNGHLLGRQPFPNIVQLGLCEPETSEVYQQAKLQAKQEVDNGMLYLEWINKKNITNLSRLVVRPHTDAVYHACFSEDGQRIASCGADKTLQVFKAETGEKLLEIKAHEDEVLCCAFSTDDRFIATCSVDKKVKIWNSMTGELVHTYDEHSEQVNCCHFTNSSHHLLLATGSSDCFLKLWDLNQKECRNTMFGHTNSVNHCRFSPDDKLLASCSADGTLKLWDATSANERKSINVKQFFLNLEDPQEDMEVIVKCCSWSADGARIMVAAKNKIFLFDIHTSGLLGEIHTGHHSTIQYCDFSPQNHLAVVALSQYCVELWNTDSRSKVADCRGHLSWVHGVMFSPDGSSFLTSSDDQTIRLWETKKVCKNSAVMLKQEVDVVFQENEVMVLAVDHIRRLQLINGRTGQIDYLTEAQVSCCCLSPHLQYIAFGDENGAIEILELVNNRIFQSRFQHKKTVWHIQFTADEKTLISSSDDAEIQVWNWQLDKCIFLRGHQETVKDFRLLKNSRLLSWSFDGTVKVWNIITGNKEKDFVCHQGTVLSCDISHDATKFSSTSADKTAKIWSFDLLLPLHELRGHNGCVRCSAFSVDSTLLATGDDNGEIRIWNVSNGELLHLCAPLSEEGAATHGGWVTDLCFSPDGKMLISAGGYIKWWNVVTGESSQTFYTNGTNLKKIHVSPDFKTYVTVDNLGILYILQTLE
Assay: Apaf-1 oligomerization by gel filtration
Type: biochemical
Details: for increase of oligomerization of Apaf-1 over the vehicle alone: 20 μM compound, 0.15 μM cyto c; for Apaf-1 complex assembly in the absence of cyto c: no cyto c
Procedure: FIG. 7 depicts activity of compounds 1-5 at low cyto c concentrations in a purified system. Apaf-1 was incubated with vehicle, cyto c, or cyto c plus 20 μM compound as indicated, and then separated on a Superose 6 gel filtration column. Individual fractions were assayed for relative Apaf-1 concentrations by capture ELISA (bar graph), or the ability to activate procaspase-3 processing in lysates (line graph). The percent of Apaf-1 in apoptosomes was determined by dividing the amount of Apaf-1 in fractions 8-11 by the total amount of Apaf-1. The extent of caspase-3 activation (given in arbitrary units) corresponds to the area under the curve for fractions 8-11 in each panel. Black bars represent fractions used for calculations.
As the compounds appeared to be acting prior to caspase activation, their effect on the oligomerization of Apaf-1 was assessed (K. Cain, D. G. Brown, C. Langlais, G. M. Cohen, J Biol Chem 274, 22686-92 (1999); K. Cain et al., J Biol Chem 275, 6067-70 (2000)). By gel filtration, Apaf-1 normally runs as a monomer of ˜140 kD (FIG. 7) (see, A. Saleh, S. M. Srinivasula, S. Acharya, R. Fishel, E. S. Alnemri, J Biol Chem 274, 17941-5 (1999)). Incubation of Apaf-1 with 5 μM cyto c induces over 90% of the Apaf-1 to form large complexes of ˜700 kD, whereas incubation with 0.15 μM cyto c concentration allowed only 22% of the Apaf-1 to assemble into complexes. However, the addition of 20 μM compound 2 or 5 at the lower cyto c concentration caused the formation of two higher molecular weight complexes: a major peak that runs at the same retention time as the complex seen at 5 μM cyto c (˜700 kD), and a minor peak that elutes in the void volume. […] To determine if the Apaf-1 complexes induced by the compounds at the lower cyto c concentration are competent for caspase activation, procaspase-9, procaspase-3, and dATP were added to fractions from the gel filtration column and assayed for caspase-3 activation. Fractions from samples that had been incubated with 5 μM cyto c strongly activated caspase-3 processing (FIG. 7, panel ii, line graph), with the maximal caspase activation corresponding to the fractions that contained the apoptosome complex. On the other hand, no fractions form the sample without cyto c activated capsase-3 processing (panel i). There was a small but measurable amount of capsase-3 activation when the cyto c concentration was reduced to 0.15 μM (panel iii). However, the extent of caspase-3 activation at the reduced level of cyto c increased approximately 4-fold when either compound 2 or 5 was added to the reaction (from 0.36 arbitrary units for the vehicle alone to 1.57 and 1.4 for compounds 2 and 5, respectively, panels iv and vi). […] Again, there was no increase in capsapse-3 activation when compounds were incubated with Apaf-1 in the absence of cyto c.
Bovine heart cyto c is purchased from Sigma and used without further purification. The XL form of Apaf-1 is cloned into pFastbacH and expressed in insect cells, resulting in full-length Apaf-XL with a C-terminal six histidine tag. Purification of Apaf-1 is according to A. Saleh, et al., J Biol Chem 274, 17941-45 (1999). 100 μL of 2 μM Apaf-1 is combined with 300 μM dATP in a mixture, with or without the further addition of 0.15 μM cyto c or compounds and heated for 30 min at 37° C.
The mixtures are next injected into a Superose 6 gel filtration column and separated at 0.4 mL/min in PBS; 0.8 mL fractions are collected 10 min after injection. […]

increase of oligomerization of Apaf-1 over the vehicle alone | Apaf-1 complex assembly in the absence of cyto c | SMILES
about 1.5 fold | no complex assembly | O=C1C(=O)N(Cc2ccc(Cl)c(Cl)c2)c2ccccc21 [Compound 2]
no effect |  | O=C(NCc1ccc(Cl)c(Cl)c1)OC1CCc2ccccc21 (centres unmarked) [Compound 4]
about 1.5 fold | no complex assembly | O=C(NCc1ccc(Cl)c(Cl)c1)OC1CCc2ccccc21 (centres unmarked) [Compound 5]
